This is an account of results in patent publication US20210238170A1, “5,5-Difluoro- and 5-Fluoro-5-Methyl-C-Glycoside Derivatives Useful As Dual SGLT1 / SGLT2 Modulators” (Janssen Pharmaceutica NV, priority 2018, published 2021).

In general, IC50 refers to the concentration needed to halve the response being measured. High values mean lower potency, low ones higher potency.

Structures are written as SMILES.

Test [1] deals with T1, human SGLT2 (Homo sapiens, UniProt P31639).
T1 construct: expressed in transfected cells
T1 sequence (P31639 1-672): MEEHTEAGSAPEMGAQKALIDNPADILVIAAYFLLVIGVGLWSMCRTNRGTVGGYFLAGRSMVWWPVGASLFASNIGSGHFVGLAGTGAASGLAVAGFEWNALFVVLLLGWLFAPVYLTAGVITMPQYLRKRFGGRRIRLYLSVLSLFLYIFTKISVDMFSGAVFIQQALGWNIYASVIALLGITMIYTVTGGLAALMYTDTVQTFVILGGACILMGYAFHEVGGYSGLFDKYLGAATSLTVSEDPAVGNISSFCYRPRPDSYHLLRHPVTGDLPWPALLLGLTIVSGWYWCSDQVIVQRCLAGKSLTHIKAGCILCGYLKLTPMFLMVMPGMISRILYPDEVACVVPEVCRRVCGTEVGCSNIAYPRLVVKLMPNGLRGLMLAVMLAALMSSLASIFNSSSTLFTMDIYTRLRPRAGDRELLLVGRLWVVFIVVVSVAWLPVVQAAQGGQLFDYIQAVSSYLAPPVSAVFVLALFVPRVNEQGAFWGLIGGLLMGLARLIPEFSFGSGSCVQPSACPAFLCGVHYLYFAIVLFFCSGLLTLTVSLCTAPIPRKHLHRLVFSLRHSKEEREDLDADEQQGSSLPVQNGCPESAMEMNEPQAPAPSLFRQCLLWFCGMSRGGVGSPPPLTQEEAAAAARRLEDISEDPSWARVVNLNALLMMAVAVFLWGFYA
The experiment in a line: SGLT2 in vitro assay: Na-dependent 14C-AMG uptake in CHO-K1 cells stably expressing human SGLT2. It is filed as cell-based. As to conditions: CHO-K1 cells stably expressing human SGLT2, 14C-AMG uptake; for IC50: compounds of formula (I) where R0 is fluoro; for inhibition at 0.3 µM: read-out: SGLT2 % Inh @ 0.3 μM. In outline: (§1)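 Sodium-dependent uptake of 14C-α-methyl-glucopyranoside ([…]) over 2 h at 37°C was counted by scintillation in stable human SGLT2- or SGLT1-CHO-K1 lines pretreated with 10 mM Na-butyrate. Compounds at 0.001–10 μM were preincubated for 10 min in pH 7.4 buffer with 137 mM NaCl; output is %-inhibition or IC50.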

Test [2] addresses T2, human SGLT1 (Homo sapiens, UniProt P13866).
T2 construct: expressed in transfected cells
T2 sequence (P13866 1-664): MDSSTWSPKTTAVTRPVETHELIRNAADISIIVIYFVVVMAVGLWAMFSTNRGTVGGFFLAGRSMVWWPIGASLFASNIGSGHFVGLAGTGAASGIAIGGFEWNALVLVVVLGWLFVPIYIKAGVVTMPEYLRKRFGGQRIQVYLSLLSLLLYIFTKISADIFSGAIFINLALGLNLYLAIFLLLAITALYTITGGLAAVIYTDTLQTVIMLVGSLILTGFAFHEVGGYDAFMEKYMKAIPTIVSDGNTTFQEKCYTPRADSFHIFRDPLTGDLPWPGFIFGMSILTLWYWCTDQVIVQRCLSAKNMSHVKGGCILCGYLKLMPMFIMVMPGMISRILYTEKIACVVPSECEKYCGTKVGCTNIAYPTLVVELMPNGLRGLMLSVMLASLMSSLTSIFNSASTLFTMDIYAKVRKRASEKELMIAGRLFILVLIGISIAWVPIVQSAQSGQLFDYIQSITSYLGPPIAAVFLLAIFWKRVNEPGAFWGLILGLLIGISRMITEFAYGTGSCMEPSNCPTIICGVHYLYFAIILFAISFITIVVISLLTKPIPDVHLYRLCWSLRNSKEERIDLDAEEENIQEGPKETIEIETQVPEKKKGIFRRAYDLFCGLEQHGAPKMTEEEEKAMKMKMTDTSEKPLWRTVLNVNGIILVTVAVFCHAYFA
Briefly: SGLT1 in vitro assay: Na-dependent 14C-AMG uptake in CHO-K1 cells stably expressing human SGLT1. To be noted: CHO-K1 cells stably expressing human SGLT1, 14C-AMG uptake; for IC50: compounds of formula (I) where R0 is fluoro; for inhibition at 0.3 µM: read-out: SGLT1 % Inh @ 0.3 μM. Format: cell-based. Summed up: as §1

For test [3], the system named is SD rats. The experiment in a line: Oral Glucose Tolerance Test (OGTT) in SD rats: blood glucose excursion AUC and urine glucose excretion. It is filed as in vivo, rat. To be noted: mean ± SE; for Urine Glucose Excretion (g/0-4 hr): n = 8. As to the method: Biological Example 2: In Vivo Assay
Oral Glucose Tolerance Test (OGTT) in SD Rats
Overnight fasted SD rats were allocated into vehicle or test compound treatment groups based on their body weights (n=8 in each group). The animals were orally dosed with vehicle or test compound at a volume of 10 ml/kg at 30-minute prior to OGTT. The animals then received an OGTT challenge with 2 g/kg (50% glucose solution at the volume of 4 ml/kg, orally). The animals were immediately transferred into metabolic cages after they were dosed with the glucose. Blood glucose levels were measured at 0 (pre-OGTT), 30, 60, and 120 minutes after OGTT using one-touch Glucometer. Blood glucose excursion AUC (area under the curve of blood glucose) was determined from the blood glucose levels measured at the timepoints.
Table 9 below, presents the measured efficacy of the test compound(s), expressed as the percentage (%) of blood glucose AUC vs that in vehicle group. The data is interpreted such that, the smaller the percentage of blood glucose AUC of compound vs vehicle, the greater the efficacy of the test compound. Urine volume and urine glucose concentrations (tested by using Olympus system with Genzyme diagnostics assay reagent) were measured to determine the urine glucose excretion (UGE) in 4-hr period after OGTT (0-4 hours).

Where [4] appears, read: Rattus norvegicus, 2 h, oral dose 1 mg/kg, n = 8, read-out: 120-min Blood Glucose AUC vs Vehicle (%).
The mark [5] stands for this setting: Rattus norvegicus, 2 h, oral dose 10 mg/kg, n = 8, read-out: 120-min Blood Glucose AUC vs Vehicle (%).

`Cc1cc(O)c([C@@H]2O[C@H](CO)C(F)(F)[C@H](O)[C@H]2O)cc1Cc1cc2ccccc2s1` [Compound 25, (2S,3R,4R,6R)-2-(5-(benzo[b]thiophen-2-ylmethyl)-2-hydroxy-4-methylphenyl)-5,5-difluoro-6-(hydroxymethyl)tetrahydro-2H-pyran-3,4-diol]: the values for the IC50 in test [1] and in test [2] were 3.8 nM and 56 nM, respectively. For the same compound, in test [3] (setting [4]), the response vs control in vivo at 1 mg/kg was determined as 67.8 ± 1.7%. Also, in test [3] (setting [5]), the response vs control in vivo at 10 mg/kg was found to be 36.5 ± 1.1%. Moreover, the “Urine Glucose Excretion (g/0-4 hr)” value in test [3] (oral dose 1 mg/kg) is given as 0.001 g/0-4 hr; in test [3] (oral dose 10 mg/kg), 0.499 ± 0.04 g/0-4 hr.

For the compound `CCc1ccc(Cc2cc([C@@H]3O[C@H](CO)C(F)(F)[C@H](O)[C@H]3O)c(O)c3c2OCC3)cc1` [Compound 30], the results for the inhibition at 0.3 µM in test [1] and in test [2] were 62.4% and 56.7%, respectively. Moreover, the IC50 in test [1] was 7.2 nM; in test [2] it was 145 nM. The response vs control in vivo at 1 mg/kg in test [3] (setting [4]) came out at 86 ± 3.4%. Further, the response vs control in vivo at 3 mg/kg in test [3] (Rattus norvegicus, 2 h, oral dose 3 mg/kg, n = 8, read-out: 120-min Blood Glucose AUC vs Vehicle (%)) was found to be 80.3 ± 1.6%. Moreover, the response vs control in vivo at 10 mg/kg in test [3] (setting [5]) was determined as 72 ± 2.3%. Also, the “Urine Glucose Excretion (g/0-4 hr)” value in test [3] (oral dose 1 mg/kg) is 0.001 ± 0.0001 g/0-4 hr; in test [3] (oral dose 3 mg/kg) it was 0.001 ± 0.0002 g/0-4 hr; in test [3] (oral dose 10 mg/kg), 0.001 ± 0.0002 g/0-4 hr.

On to `CCc1cc(O)c([C@@H]2O[C@H](CO)C(F)(F)[C@H](O)[C@H]2O)cc1Cc1ccc(OC)cc1` [Compound 88, (2S,3R,4R,6R)-2-(4-ethyl-2-hydroxy-5-(4-methoxybenzyl)phenyl)-5,5-difluoro-6-(hydroxymethyl)-tetrahydro-2H-pyran-3,4-diol], for which the inhibition at 0.3 µM was determined as 88.6% in test [1] and 77.2% in test [2]. For the same compound, the IC50 in test [1] was 1.7 nM; in test [2] it was 41 nM. The response vs control in vivo at 1 mg/kg in test [3] (setting [4]) was determined as 65.9 ± 1.8%. Also, the response vs control in vivo at 10 mg/kg in test [3] (setting [5]) is 41.6 ± 1.1%. Besides, the “Urine Glucose Excretion (g/0-4 hr)” value in test [3] (oral dose 1 mg/kg) amounted to 0.046 ± 0.014 g/0-4 hr; in test [3] (oral dose 10 mg/kg), 0.349 ± 0.023 g/0-4 hr.

For the compound `COc1ccc(Cc2cc([C@@H]3O[C@H](CO)C(F)(F)[C@H](O)[C@H]3O)c(O)cc2OC)cc1` [Compound 91, (2S,3R,4R,6R)-5,5-difluoro-2-(2-hydroxy-4-methoxy-5-(4-methoxybenzyl)phenyl)-6-(hydroxymethyl)-tetrahydro-2H-pyran-3,4-diol], the inhibition at 0.3 µM in test [1] is 76.3%; in test [2] it was 74.3%. For the same compound, the half-maximal inhibitory concentration (IC50) in test [1] was 3.2 nM; in test [2], 74 nM. The response vs control in vivo at 1 mg/kg in test [3] (setting [4]) came to 61.6 ± 3.9%. The response vs control in vivo at 10 mg/kg in test [3] (setting [5]) worked out at 41.3 ± 2.3%. For the same compound, the “Urine Glucose Excretion (g/0-4 hr)” value in test [3] (oral dose 1 mg/kg) amounted to 0.026 ± 0.007 g/0-4 hr; in test [3] (oral dose 10 mg/kg) it was 0.089 ± 0.01 g/0-4 hr.
